Measured values published in patent US8580773B2, “Small-molecule inhibitors of the androgen receptor” (The Regents of the University of California, priority 2008, dated 2013).
Where a chain is given by its changes, count along the chain named. “Also recorded” adds a separate entry of the source. Where a name gives a salt, the structure may show the parent alone.

Experiments:
prostate [1] = experiment: Prostate weight in mice after four weeks of treatment; type: in vivo; conditions: male mice, 5 times per week for four weeks; BiC 100 mg/kg PO, PP 1 mg/kg IP, or the combination
Experimental: Animals were treated 5 times per week for four weeks. At the end of the study period, animals were sacrificed and prostate tissue weighed. After weighing, the tissue was divided in half for pathological and genetic studies. […] (FIG. 7).

human androgen receptor = target: T1, human androgen receptor (Homo sapiens, UniProt P10275); experiment: Screen of 1040 FDA-approved drugs and natural products for AR antagonists (MMTV-luciferase transcription assay and C-AR-Y FRET conformation assays); type: cell-based; conditions: test compounds at 10 μM, 10 nM DHT, 24 hours; validated by dose-response
T1 construct: expressed in transfected cells; host or cells: HEK293 and LAPC4 stably expressing C-AR-Y; HEK293 transiently transfected with native AR
T1 sequence (P10275 1-920): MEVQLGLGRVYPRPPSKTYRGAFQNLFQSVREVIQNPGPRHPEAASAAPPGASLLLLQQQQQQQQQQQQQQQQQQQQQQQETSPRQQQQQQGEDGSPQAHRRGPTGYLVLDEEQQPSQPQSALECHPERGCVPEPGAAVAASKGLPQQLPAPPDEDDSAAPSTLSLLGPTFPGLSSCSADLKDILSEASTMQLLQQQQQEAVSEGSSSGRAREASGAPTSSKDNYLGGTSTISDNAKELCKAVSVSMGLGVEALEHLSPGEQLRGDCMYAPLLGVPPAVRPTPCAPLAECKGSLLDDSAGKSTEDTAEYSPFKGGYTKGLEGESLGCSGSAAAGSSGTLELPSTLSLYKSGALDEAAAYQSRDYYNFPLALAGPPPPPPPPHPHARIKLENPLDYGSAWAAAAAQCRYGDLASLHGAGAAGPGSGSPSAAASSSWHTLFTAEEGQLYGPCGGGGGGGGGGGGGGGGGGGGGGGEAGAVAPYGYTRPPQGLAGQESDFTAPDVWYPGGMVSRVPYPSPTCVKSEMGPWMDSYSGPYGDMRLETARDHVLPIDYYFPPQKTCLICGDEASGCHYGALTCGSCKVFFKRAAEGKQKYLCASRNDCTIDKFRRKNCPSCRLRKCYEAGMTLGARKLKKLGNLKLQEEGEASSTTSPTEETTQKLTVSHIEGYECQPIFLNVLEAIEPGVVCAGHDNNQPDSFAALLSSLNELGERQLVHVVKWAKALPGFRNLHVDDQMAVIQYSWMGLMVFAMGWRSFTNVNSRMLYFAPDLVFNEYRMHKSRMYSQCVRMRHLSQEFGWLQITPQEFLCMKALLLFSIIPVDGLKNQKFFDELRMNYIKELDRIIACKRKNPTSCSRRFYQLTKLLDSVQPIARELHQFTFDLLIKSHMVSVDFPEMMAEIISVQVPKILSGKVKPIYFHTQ
Experimental: A library assembled by the NINDS was screened. The library consisted of 1040 FDA-approved drugs and natural products. A basic strategy to select and compare compounds from each of the primary screens was established (FIG. 1).
The transcription assay was conducted by transfecting 10 cm plates of HEK293 cells with plasmids encoding MMTV-luciferase, SV40-renilla luciferase, and native AR. […] FRET is fluorescence resonance energy transfer between cyan and yellow fluorescent protein derivatives (CFP, YFP) that are fused to the amino and carboxyl termini of the human androgen receptor. When ligand activates the receptor, a conformational change takes place that brings the CFP and YFP into close proximity, thereby allowing FRET to occur. This spectroscopic change is detected using a fluorescence plate reader.
For the transcription assay, transfected cells were pooled before being plated into 96-well dishes with the test compounds at 10 μM. […] Cell and compound transfers were accomplished with a liquid handling robot. Cells were cultured for 24 hours in the presence of 10 nM DHT and the test compounds. After 24 hours, cells were either lysed by freeze-thaw (transcription assay), or fixed in 4% paraformaldehyde for reading on the FPR (FRET assays). Each compound was tested in duplicate in the initial screen.
The compounds were sorted on the basis of anti-androgen effects. […] This eliminated situations in which one test gave a strong response, and the replicate had none. […] For the FRET assays, toxic compounds were easily detected because of their effect on raw CFP and YFP signal, and compounds that reduced this signal below two standard deviations were eliminated.
The top 50 compounds identified in each primary assay were then tested in the other two assays.

AR = target: T2, AR (Homo sapiens, UniProt P10275, T878A); experiment: DHT titration against inhibitor, PSA-luciferase reporter in LNCaP cells (competitive vs non-competitive); type: cell-based; conditions: moderate dose of inhibitor, DHT titrated
T2 construct: that each express endogenous AR; endogenous in cells; host or cells: LNCaP

HEK293 cells = experiment: Cell proliferation (DNA content, DAPI) in control HEK293 cells; type: cell-based; conditions: PP 100 nM, HH 100 nM, BiC 1 μM
Source text: LN-AR cells were created by retroviral infection of a high-expressing AR vector into LNCaP cells, and proliferate independent of androgen in cell culture, unlike their parental line (Chen, C. D., et al., Molecular determinants of resistance to antiandrogen therapy. Nat Med, 2004. 10(1): p. 33-9). HEK293 cells were used as a control. Cells were transferred to charcoal-stripped media two days before they were split and plated in quadruplicate at a density of approximately 20,000 cells/well in 48-well plates. […] Media were changed every day, using a single preparation to ensure consistent compound concentrations. Proliferation was determined by measuring the DNA content of the cells in each well. Each day, the cells in four wells were fixed in 100% cold methanol, followed by staining for 5 min at RT with 0.2 ng/mL 4′,6-diamidino-2-phenylindole (DAPI) in PBS. The cells were washed once in PBS, then read on a fluorescence plate reader using 365/439 excitation/emission wavelengths. LAPC4 and LNCaP cells proliferated to a much greater degree in the presence of DHT, while LN-AR cells proliferated in the presence and absence of DHT.

prostate [2] = experiment: Prostate wet weight in FVB male mice after 5 weeks of treatment; type: in vivo
dorsal prostate = experiment: Histology of mouse dorsal prostate after 5 weeks of treatment; type: in vivo; conditions: FVB male mice, THP or BiC alone, or combination
[3] = tested on: androgen-regulated genes in the prostate; experiment: Quantitative PCR of androgen-regulated genes in mouse prostate, normalized to RPL19; type: in vivo; conditions: mice
Experimental: A cohort of mice were castrated as a positive control.
For quantitative PCR, RNA was isolated from mouse prostates and reverse-transcribed. The expression of several androgen-regulated genes, of which a subset is shown (FIG. 13), was determined by using QPCR and normalizing to the expression of the housekeeping gene RPL19.

native androgen receptor = target: T3, native androgen receptor (Homo sapiens, UniProt P10275); experiment: PSA-luciferase reporter with CMV-renilla control in LAPC4 cells (THP); type: cell-based; conditions: LAPC4, DHT and increasing amounts of compound
T3 construct: that each express endogenous AR; endogenous in cells; host or cells: LAPC4
T3 sequence (P10275 1-920): T1 sequence (P10275 1-920)
Source text: LAPC4 cells, a prostate cancer cell line that expresses native androgen receptor, were transfected with a PSA-luciferase reporter, and a CMV-renilla luciferase control.

[4] = target: T4, AR with a mutation (T877A) (Homo sapiens, UniProt P10275, T878A); experiment: PSA-luciferase reporter transcription assay in LNCaP cells; type: cell-based; conditions: 3 nM DHT
T4 construct: that each express endogenous AR; endogenous in cells; host or cells: LNCaP
T4 sequence (P10275 1-920 T878A): T1 sequence (P10275 1-920) with T878A
Experimental: Cells were transfected with two reporter plasmids, a PSA-luciferase construct (androgen responsive), and an SV40-renilla luciferase construct as an internal control. The following day, the cells were split and drugs added in the presence of 3 nM DHT. Luciferase production was measured the following day (Dual luciferase assay kit, Promega).
Synergism can be defined as a combination index of less than one, using the non-exclusive assumption described by Chou et al. (Chou, T. C. and P. Talalay, Quantitative analysis of dose-effect relationships: the combined effects of multiple drugs or enzyme inhibitors. Adv Enzyme Regul, 1984. 22: p. 27-55).

T2 sequence (P10275 whole entry T878A): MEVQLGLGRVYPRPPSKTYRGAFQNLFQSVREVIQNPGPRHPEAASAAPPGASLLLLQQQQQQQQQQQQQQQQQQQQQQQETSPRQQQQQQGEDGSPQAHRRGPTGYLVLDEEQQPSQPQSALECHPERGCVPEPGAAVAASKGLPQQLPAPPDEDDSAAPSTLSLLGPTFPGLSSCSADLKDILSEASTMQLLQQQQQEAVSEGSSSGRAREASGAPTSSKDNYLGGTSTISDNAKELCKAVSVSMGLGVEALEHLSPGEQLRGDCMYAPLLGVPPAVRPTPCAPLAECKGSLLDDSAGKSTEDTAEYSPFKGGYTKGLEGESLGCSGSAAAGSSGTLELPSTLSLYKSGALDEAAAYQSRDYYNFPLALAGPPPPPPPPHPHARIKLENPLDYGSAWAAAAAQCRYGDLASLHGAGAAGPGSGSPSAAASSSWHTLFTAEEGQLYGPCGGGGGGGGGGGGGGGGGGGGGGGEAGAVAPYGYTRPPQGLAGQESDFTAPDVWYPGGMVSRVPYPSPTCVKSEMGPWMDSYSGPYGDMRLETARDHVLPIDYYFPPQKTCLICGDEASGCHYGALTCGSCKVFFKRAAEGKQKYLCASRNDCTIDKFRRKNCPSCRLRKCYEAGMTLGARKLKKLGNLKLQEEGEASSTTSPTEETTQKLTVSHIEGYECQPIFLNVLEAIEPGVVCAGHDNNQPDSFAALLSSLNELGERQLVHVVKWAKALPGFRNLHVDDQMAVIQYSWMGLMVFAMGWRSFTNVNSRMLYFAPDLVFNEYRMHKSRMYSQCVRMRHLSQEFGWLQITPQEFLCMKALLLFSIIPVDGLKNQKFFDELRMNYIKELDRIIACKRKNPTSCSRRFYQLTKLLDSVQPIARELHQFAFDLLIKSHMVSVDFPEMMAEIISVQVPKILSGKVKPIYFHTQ

Compound: CC(O)(CS(=O)(=O)c1ccc(F)cc1)C(=O)Nc1ccc(C#N)c(C(F)(F)F)c1 (stereo not shown) [BiC, bicalutamide]
- Reduction of prostate weight (prostate [1]): 35%

Compound: O=c1ccc2cc(O[C@@H]3O[C@H](CO)[C@@H](O)[C@H](O)[C@H]3O)c(O)cc2o1 [Esculin]
- Anti-androgen activity in screen (human androgen receptor): previously unrecognized anti-androgen activity

Compound: CC(C)(O)C(=O)Nc1ccc([N+](=O)[O-])c(C(F)(F)F)c1 [OH—F, hydroxy-flutamide, reference compound]
- Mode of antagonism on DHT titration (AR): DHT overcame the inhibitory effect; also recorded: consistent with a competitive antagonist
- Anti-androgen activity in screen (human androgen receptor): top hits

Compound: Cc1cc(/C=C/c2ccc3cc(N(C)C)ccc3[n+]2C)c(C)n1-c1ccccc1 [PP, 6-Dimethylamino-2-[2-(2,5-dimethyl-1-phenyl-1H-pyrrol-3-yl)-vinyl]-1-methyl-quinolinium, pamoate salt, reference compound]
- Non-specific growth inhibition (HEK293 cells): Neither compound exhibited non-specific growth inhibition

Compound: COc1cc2ccc(=O)oc2cc1O [Scopoletin]
- Anti-androgen activity in screen (human androgen receptor): previously unrecognized anti-androgen activity

Compound: Cc1cc(/C=C/C2CCc3cc(N(C)C)ccc3N2C)c(C)n1-c1ccccc1 (stereo not shown) [THP, {2-[2-(2,5-Dimethyl-1-phenyl-1H-pyrrol-3-yl)-vinyl]-1-methyl-1,2,3,4-tetrahydro-quinolin-6-yl}-dimethyl-amine]
- Appearance of the prostate (prostate [2]; 20 mg/kg THP, 5 weeks): abnormal milky appearance of the prostate
- Change in prostate wet weight (prostate [2]; 5 weeks daily M-F, 1 mg/kg PP, 100 mg/kg BiC, 20 mg/kg THP, or 2 mg/kg THP + 100 mg/kg BiC): did not reduce overall wet weight
- Atrophy of the dorsal prostate by histological examination (dorsal prostate): modest atrophy
- Expression of androgen-regulated genes in the prostate (QPCR) ([3]; 2 mg/kg THP): modest effects
- Expression of androgen-regulated genes in the prostate (QPCR) ([3]; 20 mg/kg THP): significantly decreased the transcription of many androgen regulated genes
- Inhibition of androgen receptor-mediated transcription (normalized luciferase activity) (native androgen receptor): strong inhibition of androgen receptor-mediated transcription

Compound: Harman
- IC50 [4]: 380 nM
